# Assay results reported in patent US20230173004A1, “Method and Composition for Treating Ringworm on Biotic and Abiotic Surfaces” (Jeneil Biosurfactant Company, LLC, priority 2021, published 2023).
# Test system: ringworm infection
# Assay: Treatment of ringworm infections on the skin of volunteer patients
# Format: in vivo, human
# Conditions: twin teenage boys; prescribed oral treatment
# Experimental: The effectiveness of Composition A in treating fungal infections on the skin was determined on volunteer patients. In a first case, twin teenage boys were experiencing ringworm infections on the face, scalp, and neck. […] For […], the ringworm sores on […] face were treated by directly applying Composition A to the sores.
# The other teenage child was treated with a 100% solution of Composition A by dabbing it on the sores of their scalp and neck using a cotton swab twice a day over the course of 3 days. Various sores were treated over the next four to seven days with a diluted solution of Composition A. In particular, a few drops of Composition A were diluted with 10 drops of water, and the diluted solution was applied to the sores. […] Thereafter, a 1:100 solution of Composition A in water was used as a preventative treatment on the scalp prior to showering to avoid new ringworm infections.
# Thus, in a second test case, Composition A was used to treat a ringworm infection on the neck and shoulder region of a teenage child. Composition A was formulated with an aloe vera clear cream at a 2% w/v.
# In a third case, a middle-aged person was experiencing a significant ringworm infection on one foot. The ringworm infection was treated with Composition A in an aloe vera clear cream at 2% w/v.
smiles,measurement,value
"OC(Cn1cncn1)(Cn1cncn1)c1ccc(F)cc1F [oral fluconazole, fluconazole]","ringworm infections on face, scalp and neck",ineffective at completely eradicating the ringworm infection
